Assay results from patent publication US11006631B2, “Substituted pyrimidinyloxy pyridine derivatives as herbicides” (FMC Corporation, priority 2015, dated 2021).

What was measured:
Type in all cases: in vivo
[1] = tested on: foxtail, giant (giant foxtail, Setaria faberii); experiment: Test A preemergence, foxtail, giant; settings: 0 to 100 scale
From the text: (§1) Seeds of plant species selected from bamyardgrass (Echinochloa crus-galli), kochia (Kochia scoparia), ragweed (common ragweed, Ambrosia elatior), ryegrass, Italian (Italian ryegrass, Lolium multiflorum), foxtail, giant (giant foxtail, Setaria faberii), pigweed (Amaranthus retroflexus), crabgrass, large (large crabgrass, Digitaria sanguinalis), momingglory (Ipomoea spp.), velvetleaf (Abutilon theophrasti), wheat (Triticum aestivum), and corn (Zea mays) were planted into a blend of loam soil and sand and treated preemergence with a directed soil spray using test chemicals formulated in a non-phytotoxic solvent mixture which included a surfactant. At the same time, plants selected from these crop and weed species and also blackgrass (Alopecurus myosuroides), and galium (catchweed bedstraw, Galium aparine) were planted in pots containing the same blend of loam soil and sand and treated with postemergence applications of test chemicals formulated in the same manner. Plants ranged in height from 2 to 10 cm and were in the one- to two-leaf stage for the postemergence treatment. Treated plants and untreated controls were maintained in a greenhouse for approximately 10 days, after which time all treated plants were compared to untreated controls and visually evaluated for injury. Plant response ratings, summarized in Table A, are based on a 0 to 100 scale where 0 is no effect and 100 is complete control. A dash (-) response means no test result.

[2] = tested on: wheat (Triticum aestivum); experiment: Test A postemergence, wheat; settings: 0 to 100 scale
From the text: as §1

[3] = tested on: ryegrass, Italian (Italian ryegrass, Lolium multiflorum); experiment: Test A preemergence, ryegrass, Italian; settings: 0 to 100 scale
From the text: as §1

[4] = tested on: sedge, umbrella (small-flower umbrella sedge, Cyperus difformis); experiment: Test B flooded paddy test, sedge, umbrella; settings: Flood, 250 g ai/ha; scale of 0 to 100
Method: (§2) Plant species in the flooded paddy test selected from rice (Oryza sativa), sedge, umbrella (small-flower umbrella sedge, Cyperus difformis), ducksalad (Heteranthera limosa), and barnyardgrass (Echinochloa crus-galli) were grown to the 2-leaf stage for testing. At time of treatment, test pots were flooded to 3 cm above the soil surface, treated by application of test compounds directly to the paddy water, and then maintained at that water depth for the duration of the test. Treated plants and controls were maintained in a greenhouse for 13 to 15 days, after which time all species were compared to controls and visually evaluated. Plant response ratings, summarized in Table B, are based on a scale of 0 to 100 where 0 is no effect and 100 is complete control. A dash (-) response means no test result.

rice (Oryza sativa) = experiment: Test B flooded paddy test, rice; settings: Flood, 250 g ai/ha; scale of 0 to 100
Method: as §2

[5] = tested on: foxtail, giant (giant foxtail, Setaria faberii); experiment: Test A postemergence, foxtail, giant; settings: 0 to 100 scale
From the text: as §1

[6] = tested on: blackgrass (Alopecurus myosuroides); experiment: Test A postemergence, blackgrass; settings: 0 to 100 scale
From the text: as §1

[7] = tested on: barnyardgrass (Echinochloa crus-galli); experiment: Test A postemergence, barnyardgrass; settings: 0 to 100 scale
From the text: as §1

[8] = tested on: ryegrass, Italian (Italian ryegrass, Lolium multiflorum); experiment: Test A postemergence, ryegrass, Italian; settings: 0 to 100 scale
From the text: as §1

[9] = tested on: ragweed (common ragweed, Ambrosia elatior); experiment: Test A preemergence, ragweed; settings: 0 to 100 scale
From the text: as §1

[10] = tested on: pigweed (Amaranthus retroflexus); experiment: Test A postemergence, pigweed; settings: 0 to 100 scale
From the text: as §1

[11] = tested on: ragweed (common ragweed, Ambrosia elatior); experiment: Test A postemergence, ragweed; settings: 0 to 100 scale
From the text: as §1

kochia (Kochia scoparia) [12] = experiment: Test A preemergence, kochia; settings: 0 to 100 scale
From the text: as §1

corn (Zea mays) = experiment: Test A postemergence, corn; settings: 0 to 100 scale
From the text: as §1

[13] = tested on: barnyardgrass (Echinochloa crus-galli); experiment: Test A preemergence, barnyardgrass; settings: 0 to 100 scale
From the text: as §1

kochia (Kochia scoparia) [14] = experiment: Test A postemergence, kochia; settings: 0 to 100 scale
From the text: as §1

[15] = tested on: pigweed (Amaranthus retroflexus); experiment: Test A preemergence, pigweed; settings: 0 to 100 scale
From the text: as §1

[16] = tested on: ducksalad (Heteranthera limosa); experiment: Test B flooded paddy test, ducksalad; settings: Flood, 250 g ai/ha; scale of 0 to 100
Method: as §2

[17] = tested on: galium (catchweed bedstraw, Galium aparine); experiment: Test A postemergence, galium; settings: 0 to 100 scale
From the text: as §1

[18] = tested on: barnyardgrass (Echinochloa crus-galli); experiment: Test B flooded paddy test, barnyardgrass; settings: Flood, 250 g ai/ha; scale of 0 to 100
Method: as §2

Cc1cnc(-n2ccc(C(F)(F)F)n2)c(Oc2ncc(Cl)cn2)c1 [Compound 13]
0: Plant response rating, Foxtail, Giant ([1]; 31 g ai/ha) | Plant response rating, Foxtail, Giant ([1]; 125 g ai/ha) | Plant response rating, Wheat ([2]; 31 g ai/ha) | Plant response rating, Wheat ([2]; 125 g ai/ha) | Plant response rating, Ryegrass, Italian ([3]; 31 g ai/ha) | Plant response rating, Ryegrass, Italian ([3]; 125 g ai/ha) | Plant response rating, Sedge, Umbrella [4] | Plant response rating, Rice (rice (Oryza sativa)) | Plant response rating, Foxtail, Giant ([5]; 31 g ai/ha) | Plant response rating, Foxtail, Giant ([5]; 125 g ai/ha) | Plant response rating, Blackgrass ([6]; 31 g ai/ha) | Plant response rating, Blackgrass ([6]; 125 g ai/ha) | Plant response rating, Barnyardgrass ([7]; 31 g ai/ha) | Plant response rating, Barnyardgrass ([7]; 125 g ai/ha) | Plant response rating, Ryegrass, Italian ([8]; 31 g ai/ha) | Plant response rating, Ryegrass, Italian ([8]; 125 g ai/ha) | Plant response rating, Ragweed ([9]; 31 g ai/ha) | Plant response rating, Ragweed ([9]; 125 g ai/ha) | Plant response rating, Pigweed ([10]; 31 g ai/ha) | Plant response rating, Pigweed ([10]; 125 g ai/ha) | Plant response rating, Ragweed ([11]; 31 g ai/ha) | Plant response rating, Ragweed ([11]; 125 g ai/ha) | Plant response rating, Kochia (kochia (Kochia scoparia) [12]; 31 g ai/ha) | Plant response rating, Kochia (kochia (Kochia scoparia) [12]; 125 g ai/ha) | Plant response rating, Corn (corn (Zea mays); 31 g ai/ha) | Plant response rating, Corn (corn (Zea mays); 125 g ai/ha) | Plant response rating, Barnyardgrass ([13]; 31 g ai/ha) | Plant response rating, Barnyardgrass ([13]; 125 g ai/ha) | Plant response rating, Kochia (kochia (Kochia scoparia) [14]; 31 g ai/ha) | Plant response rating, Kochia (kochia (Kochia scoparia) [14]; 125 g ai/ha) | Plant response rating, Pigweed ([15]; 31 g ai/ha) | Plant response rating, Pigweed ([15]; 125 g ai/ha) | Plant response rating, Ducksalad [16] | Plant response rating, Galium ([17]; 31 g ai/ha) | Plant response rating, Galium ([17]; 125 g ai/ha) | Plant response rating, Barnyardgrass [18]

FC(F)(F)c1cc(-c2ncccc2Oc2ncc(Cl)cn2)ccn1 [Compound 14]
100: Plant response rating, Foxtail, Giant ([1]; 500 g ai/ha) | Plant response rating, Pigweed ([10]; 125 g ai/ha) | Plant response rating, Pigweed ([10]; 500 g ai/ha) | Plant response rating, Kochia (kochia (Kochia scoparia) [12]; 125 g ai/ha) | Plant response rating, Kochia (kochia (Kochia scoparia) [12]; 500 g ai/ha) | Plant response rating, Barnyardgrass ([13]; 500 g ai/ha) | Plant response rating, Kochia (kochia (Kochia scoparia) [14]; 500 g ai/ha) | Plant response rating, Pigweed ([15]; 125 g ai/ha) | Plant response rating, Pigweed ([15]; 500 g ai/ha)
90: Plant response rating, Foxtail, Giant ([1]; 125 g ai/ha) | Plant response rating, Foxtail, Giant ([5]; 500 g ai/ha) | Plant response rating, Blackgrass ([6]; 500 g ai/ha) | Plant response rating, Galium ([17]; 500 g ai/ha)
30: Plant response rating, Ryegrass, Italian ([8]; 125 g ai/ha) | Plant response rating, Ragweed ([11]; 500 g ai/ha)
40: Plant response rating, Barnyardgrass ([7]; 125 g ai/ha) | Plant response rating, Ryegrass, Italian ([8]; 500 g ai/ha) | Plant response rating, Corn (corn (Zea mays); 500 g ai/ha) | Plant response rating, Barnyardgrass ([13]; 125 g ai/ha) | Plant response rating, Ducksalad [16]
50: Plant response rating, Sedge, Umbrella [4] | Plant response rating, Galium ([17]; 125 g ai/ha)
80: Plant response rating, Kochia (kochia (Kochia scoparia) [14]; 125 g ai/ha)
60: Plant response rating, Foxtail, Giant ([5]; 125 g ai/ha) | Plant response rating, Barnyardgrass ([7]; 500 g ai/ha)
20: Plant response rating, Ryegrass, Italian ([3]; 500 g ai/ha) | Plant response rating, Ragweed ([9]; 500 g ai/ha) | Plant response rating, Corn (corn (Zea mays); 125 g ai/ha)
0: Plant response rating, Wheat ([2]; 125 g ai/ha) | Plant response rating, Rice (rice (Oryza sativa)) | Plant response rating, Ragweed ([9]; 125 g ai/ha) | Plant response rating, Barnyardgrass [18]
10: Plant response rating, Wheat ([2]; 500 g ai/ha) | Plant response rating, Ryegrass, Italian ([3]; 125 g ai/ha) | Plant response rating, Blackgrass ([6]; 125 g ai/ha) | Plant response rating, Ragweed ([11]; 125 g ai/ha)
